Laboratory results: US20160175318A1, “COMPOSITIONS COMPRISING ANTIBACTERIAL AGENT AND TAZOBACTAM” (WOCKHARDT LIMITED, priority 2013, published 2016)
Read-outs that look alike come from different tables or passages of the source.

What was measured:
Assay type in all cases: cell-based
K. pneumoniae M150 = experiment: MIC by agar dilution (CLSI) against highly resistant ESBL strain; conditions: Klebsiella pneumoniae
Description: (§1) The results on activity of cefepime and other cephalosporin antibacterial agents in combination with tazobactam against highly resistant ESBL strains are given Table 1. In a typical study, overnight grown bacterial cultures were diluted appropriately and inoculated on the agar media containing doubling dilutions of the antibiotic. Observation for growth or no growth was performed after 16-20 h of incubation at 35±2° C. in ambient air. The overall procedure was performed as per Clinical and Laboratory Standards Institute (CLSI) recommendations. This experimental was followed for Examples 2-4 and 6 below (Table 2-4 and 7).

E. coli 7MP [1] = experiment: as above
Description: as §1

E. coli M50 [2] = experiment: as above
Description: as §1

E. cloacae M-20 = experiment: as above
Description: as §1

E. coli B-89 [3] = experiment: as above
Description: as §1

E. coli M-138 = experiment: Quantitative drug diffusion assay (disc, zone of inhibition, CLSI); set-up: key to Interpretation of zone as per CLSI recommendations: R: Resistant; I: Intermediate; S: Sensitive (Interpretation as per CLSI recommendations, 2010)
Excerpt: (§2) Activity of cefepime in combination with tazobactam and various penicillins in combination with respective ESBL inhibitors was also investigated against highly resistant ESBL strains in quantitative drug diffusion assay performed as per CLSI recommendations (Clinical and Laboratory Standards Institute (CLSI), performance Standards for Antimicrobial Susceptibility Testing, 20th Informational Supplement, M 100-S20, Volume 30, No. 1, 2010).
(§3) In a typical study, overnight grown bacterial cultures after appropriate dilution were seed inoculated in the molten, cooled agar media and plates poured. Antibiotics containing 6 mm diameter discs were place on the top of the agar surface. Zone of inhibition based observation was performed after 16-18 h of incubation at 35±2° C. in ambient air. The overall procedure was performed as per CLSI recommendations (Table 5 and 6). These assays are routinely used in determining possibility of treating a particular infection using antibiotic and/or their combinations. For example, in case of treating an infection caused by E. coli (M138) using Augmentin® [commercially available combination: Amoxicillin (500 mg)+Clavulanic acid (125 mg)], the zone inhibition values need to be in the sensitive (S) range.

E. coli 7MP [4] = experiment: as above; set-up: key to Interpretation of zone as per CLSI recommendations: R: Resistant; I: Intermediate; S: Sensitive (Interpretation as per CLSI recommendations, 2010)
Excerpt: as §2, §3

E. coli M50 [5] = experiment: as above; set-up: key to Interpretation of zone as per CLSI recommendations: R: Resistant; I: Intermediate; S: Sensitive (Interpretation as per CLSI recommendations, 2010)
Excerpt: as §2, §3

E. coli B-123 = experiment: as above; set-up: key to Interpretation of zone as per CLSI recommendations: R: Resistant; I: Intermediate; S: Sensitive (Interpretation as per CLSI recommendations, 2010)
Excerpt: as §2, §3

E. coli S-112 = experiment: as above; set-up: key to Interpretation of zone as per CLSI recommendations: R: Resistant; I: Intermediate; S: Sensitive (Interpretation as per CLSI recommendations, 2010)
Excerpt: as §2, §3

E. coli B-89 [6] = experiment: as above; set-up: key to Interpretation of zone as per CLSI recommendations: R: Resistant; I: Intermediate; S: Sensitive (Interpretation as per CLSI recommendations, 2010)
Excerpt: as §2, §3

[7] = ESBL inhibitor 0 mcg (antibiotic alone)
[8] = Table 5, with Clavulanic acid 10 mcg
[9] = Table 6, with Clavulanic acid 10 mcg

CC1(C)S[C@@H]2[C@H](NC(=O)[C@H](N)c3ccc(O)cc3)C(=O)N2[C@H]1C(=O)O [Amoxicillin]
MIC (K. pneumoniae M150; M150): > 128 µg/mL
MIC (K. pneumoniae M150; M150, K. pneumoniae M150, with Tazobactam 4 mcg, read-out: MIC): > 64 µg/mL
MIC (K. pneumoniae M150; M150, K. pneumoniae M150, with Tazobactam 8 mcg, read-out: MIC): > 64 µg/mL
MIC (E. coli 7MP [1]; E. coli 7MP, with Tazobactam 4 mcg): >64 µg/mL
MIC (E. coli 7MP [1]; E. coli 7MP, with Tazobactam 8 mcg): >64 µg/mL
MIC (E. coli 7MP [1]; Escherichia coli, 7MP, 20 h): > 128 µg/mL
MIC (E. coli M50 [2]; Escherichia coli, M50, 20 h, Tazobactam 0 mcg (antibiotic alone)): > 128 µg/mL
MIC (E. coli M50 [2]; with Tazobactam 4 mcg): >64 µg/mL
MIC (E. coli M50 [2]; with Tazobactam 8 mcg): >64 µg/mL
MIC (E. cloacae M-20; E. cloacae M-20, with Tazobactam 4 mcg): >64 µg/mL
MIC (E. cloacae M-20; E. cloacae M-20, with Tazobactam 8 mcg): >64 µg/mL
MIC (E. cloacae M-20; Enterobacter cloacae, M20, 20 h): > 128 µg/mL
MIC (E. coli B-89 [3]; E. coli B-89, with Tazobactam 4 mcg): >64 µg/mL
MIC (E. coli B-89 [3]; E. coli B-89, with Tazobactam 8 mcg): >64 µg/mL
MIC (E. coli B-89 [3]; Escherichia coli, B89, 20 h): > 128 µg/mL
Zone of Inhibition (E. coli M-138; [7]): Nil
Interpretation of zone as per CLSI recommendations (E. coli M-138; Table 5, ESBL inhibitor 0 mcg): (R)
Interpretation of zone as per CLSI recommendations (E. coli M-138; [8]): (R)
Interpretation of zone as per CLSI recommendations (E. coli M-138; Table 6, ESBL inhibitor 0 mcg): (R)
Interpretation of zone as per CLSI recommendations (E. coli M-138; [9]): (R)
Zone of Inhibition (E. coli M-138; with Clavulanic acid 10 mcg): Nil
Zone of Inhibition (E. coli 7MP [4]; [7]): Nil
Interpretation of zone as per CLSI recommendations (E. coli 7MP [4]; Table 5, ESBL inhibitor 0 mcg): (R)
Interpretation of zone as per CLSI recommendations (E. coli 7MP [4]; [8]): (R)
Interpretation of zone as per CLSI recommendations (E. coli 7MP [4]; Table 6, ESBL inhibitor 0 mcg): (R)
Interpretation of zone as per CLSI recommendations (E. coli 7MP [4]; [9]): (R)
Zone of Inhibition (E. coli 7MP [4]; with Clavulanic acid 10 mcg): Nil
Zone of Inhibition (E. coli M50 [5]; [7]): Nil
Interpretation of zone as per CLSI recommendations (E. coli M50 [5]; Table 5, ESBL inhibitor 0 mcg): (R)
Interpretation of zone as per CLSI recommendations (E. coli M50 [5]; [8]): (R)
Interpretation of zone as per CLSI recommendations (E. coli M50 [5]; Table 6, ESBL inhibitor 0 mcg): (R)
Interpretation of zone as per CLSI recommendations (E. coli M50 [5]; [9]): (R)
Zone of Inhibition (E. coli M50 [5]; with Clavulanic acid 10 mcg): Nil
Zone of Inhibition (E. coli B-123; [7]): Nil
Interpretation of zone as per CLSI recommendations (E. coli B-123; Table 5, ESBL inhibitor 0 mcg): (R)
Interpretation of zone as per CLSI recommendations (E. coli B-123; [8]): (R)
Interpretation of zone as per CLSI recommendations (E. coli B-123; Table 6, ESBL inhibitor 0 mcg): (R)
Interpretation of zone as per CLSI recommendations (E. coli B-123; [9]): (R)
Zone of Inhibition (E. coli B-123; with Clavulanic acid 10 mcg): Nil
Zone of Inhibition (E. coli S-112; [7]): Nil
Interpretation of zone as per CLSI recommendations (E. coli S-112; Table 5, ESBL inhibitor 0 mcg): (R)
Interpretation of zone as per CLSI recommendations (E. coli S-112; [8]): (R)
Interpretation of zone as per CLSI recommendations (E. coli S-112; Table 6, ESBL inhibitor 0 mcg): (R)
Interpretation of zone as per CLSI recommendations (E. coli S-112; [9]): (R)
Zone of Inhibition (E. coli S-112; with Clavulanic acid 10 mcg): Nil
Zone of Inhibition (E. coli B-89 [6]; [7]): Nil
Interpretation of zone as per CLSI recommendations (E. coli B-89 [6]; Table 5, ESBL inhibitor 0 mcg): (R)
Interpretation of zone as per CLSI recommendations (E. coli B-89 [6]; [8]): (R)
Interpretation of zone as per CLSI recommendations (E. coli B-89 [6]; Table 6, ESBL inhibitor 0 mcg): (R)
Interpretation of zone as per CLSI recommendations (E. coli B-89 [6]; [9]): (R)
Zone of Inhibition (E. coli B-89 [6]; with Clavulanic acid 10 mcg): Nil
